Patent US9511111B2, “Methods for the treatment of X-linked hypophosphatemia and related disorders” (WISCONSIN ALUMNI RESEARCH FOUNDATION, priority 2010, dated 2016)
Entries after “also recorded” stand apart in the source; their conditions may differ.

Key:
SPC2 [1] = test: SPC2 activity in MC3T3 osteoblasts in culture; format: cell-based; conditions: MC3T3 cells, D6R 200 μM, similar period (48 hours); control 124±14; p<0.05
Experimental: (§1) The dose-dependent effects of D6R (0-200 μM) on SPC2 activity in hTert osteoblasts (MOB) and MC3T3 osteoblasts in culture were also examined. […] Treatment of MC3T3 cells for a similar period likewise increased enzyme activity at 200 μM (124±14 vs 171±7 fluorescent units/min; p<0.05). Treatment of the MOB cell line with D6R, and the resulting increase in SPC2 enzyme activity decreased Fgf23 mRNA expression (1.0±0.7 vs 0.2±0.1 fold; p<0.001).

[2] = test system: MOB cells (hTert osteoblasts); test: mRNA expression in MOB cell line treated with D6R; format: cell-based
Experimental: as §1

hyp-mice = test: In vivo daily ip injection of D6R in hyp mice (murine model of XLH); design: species or system mouse
Experimental: In vivo injection of D6R in normal and hyp mice: 3-week old normal and hyp mice were randomly separated into two groups for each strain. One group of mice received daily ip injection of saline. […] Blood samples were obtained every 3 days via retro-orbital bleedings. At the end of the in vivo injection period, the animals were euthanized with an overdose of sodium pentobarbital (65 mg/kg). The final blood sample was collected by cardiac puncture for large volume of serum preparation. Kidney and femoral bone samples were collected for total RNA and protein extractions.
(§2) Biochemistry measurements: Serum Pi levels were measured using Phosphorus Liqui-UV kit from Stanbio Laboratory (Boerne, Tex.). Serum Ca levels were measured using calcium Liquicolor kit from Stanbio following the manufacturer's protocols. Serum intact FGF-23 was measured employing a FGF-23 ELISA kit obtained from Kainos Laboratories, Japan. Serum C-terminal FGF-23 was measured using ELISA kit from Immunotopics, CA.
Real-time RT-PCR for mRNA expression: Total RNA was isolated from kidney samples and femurs. The femurs were trimmed of all fat, homogenized into fine powder in liquid nitrogen using porcelain motor and pestle. Total RNA was then extracted using TRIzol Reagent (Invitrogen, CA) following the manufacturer's protocol. Kidney samples were rinsed free of blood using ice-cold PBS buffer. Then the kidney was homogenized in TRIzol Reagent using mortor and pestle. Then, the renal total RNA was isolated following the manufacturer's protocol. RT reactions were performed using Bio-Rad iScript cDNA synthesis kit (Bio-Rad, CA) with poly-A primers. FGF-23 mRNA, as well as Npt2 mRNA and 25(OH)D3-1α-hydroxylase mRNA were quantitated by real-time PCR using gene specific primers.
Western blot for protein expression: Kidney proteins were isolated using sucrose buffer containing 20 mM HEPES, 1 mM EDTA, 255 mM sucrose, 0.4 mM phenylmethylsulfonyl fluoride, and 2 μg/ml leupeptin. The homogenate was centrifuged at 1,500 g for 15 min, and the pellet containing mitochondrial protein, including 25(OH)D-1α-hydroxylase, was re-suspended in the same buffer, aliquoted, and stored at −80° C. until use. The supernatant that contained the plasma membrane protein obtained after centrifugation was also collected for the measurement of Npt2 protein. Bone samples were homogenized into fine powder in liquid nitrogen. Protein contents were isolated using T-PER tissue protein extraction reagent with Halt protease inhibitor cocktail (Thermo Scientific, Rockford, Ill.).
A 20 μg aliquot of the respective protein extracts was electrophoresed in 10% SDS-PAGE gel and transferred onto a nitrocellulose membrane. The membrane was then washed and probed with specific antibodies and subsequently with specific secondary antibodies conjugated with HRP. To quantitate the immunoblotting signal, 6 ml of chemiluminescence detection solution (ECL plus, Amersham, UK) was added, and the signal was detected directly by the fluorescent scanner (Storm 860, Amersham, UK). Band density was analyzed using ImageQuant 5.2 software (Molecular Dynamics, Sunnyvale, Calif.). The antibody was then removed by incubating the membrane in reprobing solution (62.5 mM Tris-HCl, 2% SDS, and 100 mM 2-mercaptoethanol, pH 6.7) for 30 min, 50° C. The membrane was then blocked and probed with specific anti-β-actin antibody to verify the loading equivalence among samples.
High-resolution radiography (x-ray) for the femus: mouse femurs were extracted and incubated in lysis buffer (2×SSC, 0.2% SDS, 10 mM EDTA, 10 mg/ml proteinase K) for 2 days. After the surrounding muscles were digested, the femurs were washed in PBS buffer and X-rayed on a Faxitron model MX-20 Specimen Radiography System with a digital camera attached (Faxitron x-ray Corp., Buffalo Grove, Ill.). […]

normal mice = test: In vivo daily ip injection of D6R in normal mice; design: species or system mouse; conditions: D6R treated, daily ip for 5 weeks, saline 200 ± 15.5, p<0.001
Experimental: In vivo injection of D6R in normal and hyp mice: 3-week old normal and hyp mice were randomly separated into two groups for each strain. One group of mice received daily ip injection of saline. The other group of mice received daily ip injection of D6R 1.5 μg/kg/day for 5 weeks. Blood samples were obtained every 3 days via retro-orbital bleedings. At the end of the in vivo injection period, the animals were euthanized with an overdose of sodium pentobarbital (65 mg/kg). The final blood sample was collected by cardiac puncture for large volume of serum preparation. Kidney and femoral bone samples were collected for total RNA and protein extractions.
as §2

SPC2 [3] = test: SPC2 activity in hTert osteoblasts (MOB) in culture; format: cell-based; conditions: D6R 50 μM, p<0.01
Experimental: as §1

SPC2 enzyme activity (SPC2 [1]): 171±7 fluorescent units/min
Substance: hexa-D-arginine [D6R]
Fgf23 mRNA expression ([2]; MOB cell line treated with D6R, control 1.0±0.7, p<0.001): 0.2±0.1 fold
SPC2 mRNA expression ([2]; MOB cells treated with D6R): without alteration
7B2 mRNA expression ([2]; MOB cells treated with D6R, control 1.0±0.2, p<0.001): 3.6±0.4 fold
mineral apposition rate (hyp-mice; D6R treated hyp-mice, FIGS. 12-13): normalization; also recorded: restoration of normal bone mineral apposition rate
serum FGF23 concentration (hyp-mice; Hyp-mice, D6R treated, daily ip for 5 weeks, saline 2126 ± 281, p<0.001): 1682 ± 191
bone modeling (long bone circumference) (hyp-mice; hyp mouse): decreased to normal
length of the long bones in the extremities (hyp-mice; hyp mouse): increased
renal 25(OH)D3-1α-hydroxylase activity (translational abnormality) (hyp-mice; hyp mouse): normalized
degradation of serum FGF23 (hyp-mice; hyp mouse, D6R treatment, FIG. 3B): increased
degradation of intact FGF23 in hyp-mouse bone (hyp-mice; hyp mouse, ip x 5 weeks): enhanced
Fgf23 mRNA expression (hyp-mice; hyp mouse, ip x 5 weeks, FIG. 3A): decreased
Npt2a mRNA (hyp-mice; hyp mouse, kidney, FIGS. 2A-B): normalization
renal phosphate wasting and serum phosphorus levels (hyp-mice; hyp mouse, FIG. 1): normalization
Sost mRNA and the coded protein Sclerostin (hyp-mice; hyp mouse, FIG. 4): suppression
bone 7B2 mRNA expression (hyp-mice; hyp mouse, FIG. 5): stimulation
bone density normalization (hyp-mice; hyp mouse, FIG. 9): increasing
Osteoid surface/Bone surface (OS/BS) (hyp-mice; hyp mouse, FIG. 11A): decreasing
Mineralized area/Total Area (MA/TA ratios) (hyp-mice; hyp mouse, FIG. 11B): enhancing
rickets and osteomalacia (hyp-mice; hyp mouse, FIGS. 6-13): cured
serum FGF23 concentration (normal mice): 120 ± 12.5
SPC2 activity, h-Tert osteoblasts (SPC2 [3]; control 121 ± 18): 329 ± 17 fluorescent units
SPC2 activity (SPC2 [3]; hTert osteoblasts, 48 hours, control 121±18): 329±17 fluorescent units/min
